Measured values: the supplement of paper PMC10307832

Key:
Experiment in all cases: relative viability (nuclei count vs DMSO), 5 days (fraction); higher = more cells survive
NCI-H2405 = system: NCI-H2405
Summary of the method: (§1)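 Lung cancer cell lines were pin-tool dosed in 1536-well plates on the day after seeding, with either a lone drug or a fixed anchor-drug dose plus five library-drug doses (not always all listed) in √10 steps. Nuclei were counted on 4× images after 5 days. Relative viability is the ratio of treated-well to vehicle-well nuclei counts, with each value a median of duplicate plates.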

COR-L23 = system: COR-L23
Summary of the method: as §1

NCI-H2023 = system: NCI-H2023
Summary of the method: as §1

NCI-H2126 = system: NCI-H2126
Summary of the method: as §1

NCI-H838 = system: NCI-H838
Summary of the method: as §1

NCI-H1395 = system: NCI-H1395
Summary of the method: as §1

HARA = system: HARA
Summary of the method: as §1

HCC-15 = system: HCC-15
Summary of the method: as §1

HOP-62 = system: HOP-62
Summary of the method: as §1

NCI-H1793 = system: NCI-H1793
Summary of the method: as §1

EMC-BAC-2 = system: EMC-BAC-2
Summary of the method: as §1

HCC-78 = system: HCC-78
Summary of the method: as §1

SK-LU-1 = system: SK-LU-1
Summary of the method: as §1

NCI-H1944 = system: NCI-H1944
Summary of the method: as §1

LC-2-ad = system: LC-2-ad
Summary of the method: as §1

NCI-H23 = system: NCI-H23
Summary of the method: as §1

HCC-366 = system: HCC-366
Summary of the method: as §1

NCI-H358 = system: NCI-H358
Summary of the method: as §1

NCI-H1993 = system: NCI-H1993
Summary of the method: as §1

NCI-H2228 = system: NCI-H2228
Summary of the method: as §1

ChaGo-K-1 = system: ChaGo-K-1
Summary of the method: as §1

## Cc1sc2c(c1C)C(c1ccc(Cl)cc1)=N[C@@H](CC(=O)OC(C)(C)C)c1nnc(C)n1-2 [JQ1] + Nc1nc2[nH]cc(CCc3ccc(C(=O)N[C@@H](CCC(=O)O)C(=O)O)cc3)c2c(=O)[nH]1 [Pemetrexed] (partner 0.2 µM)
NCI-H2405; first compound 0.04 µM
  relative viability: 1.08
NCI-H2405; first compound 0.4 µM
  relative viability: 0.899
NCI-H2405; first compound 1.265 µM
  relative viability: 0.72
NCI-H2405; first compound 4 µM
  relative viability: 0.321
COR-L23; first compound 0.04 µM
  relative viability: 0.21
COR-L23; first compound 0.1265 µM
  relative viability: 0.214
COR-L23; first compound 0.4 µM
  relative viability: 0.196
COR-L23; first compound 1.265 µM
  relative viability: 0.159
COR-L23; first compound 4 µM
  relative viability: 0.147
NCI-H2023; first compound 0.04 µM
  relative viability: 0.231
NCI-H2023; first compound 0.1265 µM
  relative viability: 0.195
NCI-H2023; first compound 0.4 µM
  relative viability: 0.139
NCI-H2023; first compound 1.265 µM
  relative viability: 0.101
NCI-H2023; first compound 4 µM
  relative viability: 0.109
NCI-H2126; first compound 0.04 µM
  relative viability: 0.71
NCI-H2126; first compound 0.1265 µM
  relative viability: 0.721
NCI-H2126; first compound 0.4 µM
  relative viability: 0.624
NCI-H2126; first compound 1.265 µM
  relative viability: 0.519
NCI-H2126; first compound 4 µM
  relative viability: 0.413
NCI-H838; first compound 0.04 µM
  relative viability: 0.24
NCI-H838; first compound 0.1265 µM
  relative viability: 0.167
NCI-H838; first compound 0.4 µM
  relative viability: 0.176
NCI-H838; first compound 1.265 µM
  relative viability: 0.177
NCI-H838; first compound 4 µM
  relative viability: 0.17
NCI-H1395; first compound 0.04 µM
  relative viability: 0.911
NCI-H1395; first compound 0.1265 µM
  relative viability: 0.737
NCI-H1395; first compound 0.4 µM
  relative viability: 0.797
NCI-H1395; first compound 1.265 µM
  relative viability: 0.496
NCI-H1395; first compound 4 µM
  relative viability: 0.343
HARA; first compound 0.04 µM
  relative viability: 0.249
HARA; first compound 0.1265 µM
  relative viability: 0.271
HARA; first compound 0.4 µM
  relative viability: 0.235
HARA; first compound 1.265 µM
  relative viability: 0.217
HARA; first compound 4 µM
  relative viability: 0.185
HCC-15; first compound 0.04 µM
  relative viability: 0.238
HCC-15; first compound 0.1265 µM
  relative viability: 0.224
HCC-15; first compound 0.4 µM
  relative viability: 0.19
HCC-15; first compound 1.265 µM
  relative viability: 0.182
HCC-15; first compound 4 µM
  relative viability: 0.199
HOP-62; first compound 0.04 µM
  relative viability: 0.271
HOP-62; first compound 0.1265 µM
  relative viability: 0.266
HOP-62; first compound 0.4 µM
  relative viability: 0.26
HOP-62; first compound 1.265 µM
  relative viability: 0.137
HOP-62; first compound 4 µM
  relative viability: 0.106
NCI-H1793; first compound 0.04 µM
  relative viability: 0.748
NCI-H1793; first compound 0.1265 µM
  relative viability: 0.81
NCI-H1793; first compound 0.4 µM
  relative viability: 0.648
NCI-H1793; first compound 1.265 µM
  relative viability: 0.661
NCI-H1793; first compound 4 µM
  relative viability: 0.78
EMC-BAC-2; first compound 0.04 µM
  relative viability: 0.437
EMC-BAC-2; first compound 0.1265 µM
  relative viability: 0.369
EMC-BAC-2; first compound 0.4 µM
  relative viability: 0.365
EMC-BAC-2; first compound 1.265 µM
  relative viability: 0.366
EMC-BAC-2; first compound 4 µM
  relative viability: 0.33
HCC-78; first compound 0.04 µM
  relative viability: 0.87
HCC-78; first compound 0.1265 µM
  relative viability: 0.957
HCC-78; first compound 0.4 µM
  relative viability: 0.977
HCC-78; first compound 1.265 µM
  relative viability: 0.91
HCC-78; first compound 4 µM
  relative viability: 0.866
SK-LU-1; first compound 0.04 µM
  relative viability: 0.974
SK-LU-1; first compound 0.1265 µM
  relative viability: 0.766
SK-LU-1; first compound 0.4 µM
  relative viability: 0.607
SK-LU-1; first compound 1.265 µM
  relative viability: 0.278
SK-LU-1; first compound 4 µM
  relative viability: 0.181
NCI-H1944; first compound 0.04 µM
  relative viability: 0.74
NCI-H1944; first compound 0.1265 µM
  relative viability: 0.565
NCI-H1944; first compound 0.4 µM
  relative viability: 0.466
NCI-H1944; first compound 1.265 µM
  relative viability: 0.446
NCI-H1944; first compound 4 µM
  relative viability: 0.438
LC-2-ad; first compound 0.04 µM
  relative viability: 0.268
LC-2-ad; first compound 0.1265 µM
  relative viability: 0.258
LC-2-ad; first compound 0.4 µM
  relative viability: 0.244
LC-2-ad; first compound 1.265 µM
  relative viability: 0.256
LC-2-ad; first compound 4 µM
  relative viability: 0.209
NCI-H23; first compound 0.04 µM
  relative viability: 0.677
NCI-H23; first compound 0.1265 µM
  relative viability: 0.67
NCI-H23; first compound 0.4 µM
  relative viability: 0.41
NCI-H23; first compound 1.265 µM
  relative viability: 0.208
NCI-H23; first compound 4 µM
  relative viability: 0.171
HCC-366; first compound 0.04 µM
  relative viability: 0.16
HCC-366; first compound 0.4 µM
  relative viability: 0.136
HCC-366; first compound 1.265 µM
  relative viability: 0.13
HCC-366; first compound 4 µM
  relative viability: 0.104
NCI-H358; first compound 0.04 µM
  relative viability: 0.185
NCI-H358; first compound 0.1265 µM
  relative viability: 0.198
NCI-H358; first compound 0.4 µM
  relative viability: 0.199
NCI-H358; first compound 1.265 µM
  relative viability: 0.16
NCI-H358; first compound 4 µM
  relative viability: 0.153
NCI-H1993; first compound 0.04 µM
  relative viability: 0.592
NCI-H1993; first compound 0.1265 µM
  relative viability: 0.649
NCI-H1993; first compound 0.4 µM
  relative viability: 0.583
NCI-H1993; first compound 1.265 µM
  relative viability: 0.478
NCI-H1993; first compound 4 µM
  relative viability: 0.49
NCI-H2228; first compound 0.04 µM
  relative viability: 0.362
NCI-H2228; first compound 0.1265 µM
  relative viability: 0.314
NCI-H2228; first compound 0.4 µM
  relative viability: 0.358
NCI-H2228; first compound 1.265 µM
  relative viability: 0.312
NCI-H2228; first compound 4 µM
  relative viability: 0.184
ChaGo-K-1; first compound 0.04 µM
  relative viability: 0.25
ChaGo-K-1; first compound 0.1265 µM
  relative viability: 0.256
ChaGo-K-1; first compound 0.4 µM
  relative viability: 0.245
ChaGo-K-1; first compound 1.265 µM
  relative viability: 0.252
ChaGo-K-1; first compound 4 µM
  relative viability: 0.243
